Target: T1, recombinant human SAE enzyme (Homo sapiens, UniProt Q9UBT2)
T1 sequence (Q9UBT2 1-640): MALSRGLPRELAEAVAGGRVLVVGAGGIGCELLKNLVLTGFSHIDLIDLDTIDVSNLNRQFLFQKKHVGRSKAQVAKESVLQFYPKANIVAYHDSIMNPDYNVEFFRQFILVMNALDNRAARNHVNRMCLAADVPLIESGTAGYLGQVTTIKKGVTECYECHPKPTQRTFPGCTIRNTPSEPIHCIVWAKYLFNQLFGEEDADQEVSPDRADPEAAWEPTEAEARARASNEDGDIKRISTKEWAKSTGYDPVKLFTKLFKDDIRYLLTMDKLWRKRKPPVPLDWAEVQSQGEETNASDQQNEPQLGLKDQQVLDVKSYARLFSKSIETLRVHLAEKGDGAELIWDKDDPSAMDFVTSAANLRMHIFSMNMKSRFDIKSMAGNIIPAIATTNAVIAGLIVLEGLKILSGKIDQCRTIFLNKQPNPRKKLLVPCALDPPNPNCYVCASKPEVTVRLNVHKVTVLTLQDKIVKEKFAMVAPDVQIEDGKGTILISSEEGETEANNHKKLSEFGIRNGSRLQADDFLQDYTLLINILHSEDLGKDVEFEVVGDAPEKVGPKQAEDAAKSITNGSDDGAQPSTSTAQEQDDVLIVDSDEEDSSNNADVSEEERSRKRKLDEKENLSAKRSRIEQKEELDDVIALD
T1 sequence (Q9UBE0 1-346 partner): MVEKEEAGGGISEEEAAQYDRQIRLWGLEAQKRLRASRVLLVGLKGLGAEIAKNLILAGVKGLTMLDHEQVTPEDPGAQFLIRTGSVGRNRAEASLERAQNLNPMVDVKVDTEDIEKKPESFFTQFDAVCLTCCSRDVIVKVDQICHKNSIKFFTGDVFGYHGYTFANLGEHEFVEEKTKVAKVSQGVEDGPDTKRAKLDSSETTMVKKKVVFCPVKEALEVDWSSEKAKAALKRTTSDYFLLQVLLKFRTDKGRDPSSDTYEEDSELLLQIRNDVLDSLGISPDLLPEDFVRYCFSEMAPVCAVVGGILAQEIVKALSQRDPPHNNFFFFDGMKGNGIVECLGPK
Experiment: SAE HTRF Enzyme Assay
Type: biochemical
Conditions: for IC50: class symbols A-C; for inhibition at 0.111 µM: compound concentration 0.111 μM, read-out: Percent Inhibition
In short: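 Sumoylation of Ubc9-GST by recombinant human SAE was followed by time-resolved FRET between Eu-cryptate anti-Flag and allophycocyanin anti-GST antibodies. The enzyme step used low ATP (0.5 μM) at pH 7.5 and ran 105 min at 24° C.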

Row | Structure (SMILES) | IC50 | inhibition at 0.111 µM
1 | NS(=O)(=O)OC[C@H]1C[C@@H](Nc2ccncc2C(=O)c2ccn(Cc3ccc(Cl)c(Cl)c3)n2)C[C@@H]1O [Compound I-78, {(1R,2S,4R)-4-[(3-{[1-(3,4-dichlorobenzyl)-1H-pyrazol-3-yl]carbonyl}pyridin-4-yl)amino]-2-hydroxycyclopentyl}methyl sulfamate] | < 10 nM | 97%
2 | Cn1cccc(Cn2ccc(C(=O)c3cncnc3N[C@@H]3C[C@H](COS(N)(=O)=O)[C@@H](O)C3)n2)c1=O [Compound I-80, [(1R,2S,4R)-2-hydroxy-4-{[5-({1-[(1-methyl-2-oxo-1,2-dihydropyridin-3-yl)methyl]-1H-pyrazol-3-yl}carbonyl)pyrimidin-4-yl]amino}cyclopentyl]methyl sulfamate] | < 10 nM | 96%
3 | NS(=O)(=O)OC[C@H]1C[C@@H](Nc2ccncc2C(=O)c2ccn(Cc3cccc(Cl)c3)n2)[C@H](O)[C@@H]1O [Compound I-81, {(1R,2R,3S,4R)-4-[(3-{[1-(3-chlorobenzyl)-1H-pyrazol-3-yl]carbonyl}pyridin-4-yl)amino]-2,3-dihydroxycyclopentyl}methyl sulfamate] | < 10 nM | 98%
4 | NS(=O)(=O)OC[C@H]1C[C@@H](Nc2ncncc2C(=O)c2ccn(CC3CCCCC3)n2)[C@H](O)[C@@H]1O [Compound I-82, {(1R,2R,3S,4R)-4-[(5-{[1-(cyclohexylmethyl)-1H-pyrazol-3-yl]carbonyl}pyrimidin-4-yl)amino]-2,3-dihydroxycyclopentyl}methyl sulfamate] | < 10 nM | 96%
5 | NS(=O)(=O)OC[C@H]1C[C@@H](Nc2ccncc2C(=O)c2ccn(Cc3cccc(OC(F)(F)F)c3)c2)C[C@@H]1O [Compound I-83, [(1R,2S,4R)-2-Hydroxy-4-{[3-({1-[3-(trifluoromethoxy)benzyl]-1H-pyrrol-3-yl}carbonyl)pyridin-4-yl]amino}cyclopentyl]methyl sulfamate] | 10 to 100 nM | 88%
6 | CC#Cc1cccc(Cn2ccc(C(=O)c3cncnc3N[C@@H]3C[C@H](COS(N)(=O)=O)[C@@H](O)C3)n2)c1 [Compound I-84, [(1R,2S,4R)-2-hydroxy-4-{[5-({1-[3-(prop-1-yn-1-yl)benzyl]-1H-pyrazol-3-yl}carbonyl)pyrimidin-4-yl]amino}cyclopentyl]methyl sulfamate] | < 10 nM | 95%
7 | C#Cc1cccc(Cn2ccc(C(=O)c3cncnc3N[C@@H]3C[C@H](COS(N)(=O)=O)[C@@H](O)C3)n2)c1 [Compound I-85, {(1R,2S,4R)-4-[(5-{[1-(3-ethynylbenzyl)-1H-pyrazol-3-yl]carbonyl}pyrimidin-4-yl)amino]-2-hydroxycyclopentyl}methyl sulfamate] | < 10 nM | 98%
8 | NS(=O)(=O)OC[C@H]1C[C@@H](Nc2ncncc2C(=O)c2ccn(Cc3ccc(C(F)F)o3)c2)[C@@H](F)[C@@H]1O [Compound I-87, [(1R,2R,3R,4R)-4-({5-[(1-{[5-(difluoromethyl)-2-furyl]methyl}-1H-pyrrol-3-yl)carbonyl]pyrimidin-4-yl}amino)-3-fluoro-2-hydroxycyclopentyl]methyl sulfamate] | < 10 nM | > 99%
9 | NS(=O)(=O)OC[C@H]1C[C@@H](Nc2ncncc2C(=O)c2ccn(Cc3c(F)cc(F)cc3F)n2)[C@H](O)[C@@H]1O [Compound I-88, {(1R,2R,3S,4R)-2,3-dihydroxy-4-[(5-{[1-(2,4,6-trifluorobenzyl)-1H-pyrazol-3-yl]carbonyl}pyrimidin-4-yl)amino]cyclopentyl}methyl sulfamate] | < 10 nM | > 99%
10 | NS(=O)(=O)OC[C@H]1C[C@@H](Nc2ncncc2C(=O)c2ccn(Cc3ccc(F)c(Cl)c3)n2)[C@H](O)[C@@H]1O [Compound I-89, {(1R,2R,3S,4R)-4-[(5-{[1-(3-chloro-4-fluorobenzyl)-1H-pyrazol-3-yl]carbonyl}pyrimidin-4-yl)amino]-2,3-dihydroxycyclopentyl}methyl sulfamate] | < 10 nM | 98%
11 | NS(=O)(=O)OC[C@H]1C[C@@H](Nc2ncncc2C(=O)c2cc(CO)n(Cc3cccc(Br)c3)n2)C[C@@H]1O [Compound I-90, {(1R,2S,4R)-4-[(5-{[1-(3-Bromobenzyl)-5-(hydroxymethyl)-1H-pyrazol-3-yl]carbonyl}pyrimidin-4-yl)amino]-2-hydroxycyclopentyl}methyl sulfamate] | < 10 nM | 98%
12 | NS(=O)(=O)OC[C@H]1C[C@@H](Nc2ncncc2C(=O)c2ccn(Cc3cc(F)ccc3F)n2)[C@H](O)[C@@H]1O [Compound I-91, {(1R,2R,3S,4R)-4-[(5-{[1-(2,5-difluorobenzyl)-1H-pyrazol-3-yl]carbonyl}pyrimidin-4-yl)amino]-2,3-dihydroxycyclopentyl}methyl sulfamate] | < 10 nM | 98%
13 | NS(=O)(=O)OC[C@H]1C[C@@H](Nc2ncncc2C(=O)c2ccn(Cc3ccc(F)c(Br)c3)n2)[C@@H](F)[C@@H]1O [Compound I-92, {(1R,2R,3R,4R)-4-[(5-{[1-(3-bromo-4-fluorobenzyl)-1H-pyrazol-3-yl]carbonyl}pyrimidin-4-yl)amino]-3-fluoro-2-hydroxycyclopentyl}methyl sulfamate] | < 10 nM | 99%
14 | NS(=O)(=O)OC[C@H]1C[C@@H](Nc2ncncc2C(=O)c2ccn(CC3CCCCC3)n2)C[C@@H]1O [Compound I-93, {(1R,2S,4R)-4-[(5-{[1-(cyclohexylmethyl)-1H-pyrazol-3-yl]carbonyl}pyrimidin-4-yl)amino]-2-hydroxycyclocarbonyl}methyl sulfamate] | < 10 nM | 90%
15 | NS(=O)(=O)OC[C@H]1C[C@@H](Nc2ncncc2C(=O)c2cc(C(F)(F)F)n(Cc3ccccc3)c2)[C@@H](F)[C@@H]1O [Compound I-94, {(1R,2R,3R,4R)-4-[(5-{[1-Benzyl-5-(trifluoromethyl)-1H-pyrrol-3-yl]carbonyl}pyrimidin-4-yl)amino]-3-fluoro-2-hydroxycyclopentyl}methyl sulfamate] | < 10 nM | 97%
16 | NS(=O)(=O)OC[C@H]1C[C@@H](Nc2ncncc2C(=O)c2ccn(Cc3cccc(Cl)n3)n2)C[C@@H]1O [Compound I-95, [(1R,2S,4R)-4-{[5-({1-[(6-chloropyridin-2-yl)methyl]-1H-pyrazol-3-yl}carbonyl)pyrimidin-4-yl]amino}-2-hydroxycyclopentyl]methyl sulfamate] | < 10 nM | 99%
17 | NS(=O)(=O)OC[C@H]1C[C@@H](Nc2ncncc2C(=O)c2ccn(CC(=O)c3cccc(Br)c3)n2)[C@H](O)[C@@H]1O [Compound I-96, [(1R,2R,3S,4R)-4-{[5-({1-[2-(3-bromophenyl)-2-oxoethyl]-1H-pyrazol-3-yl}carbonyl)pyrimidin-4-yl]amino}-2,3-dihydroxycyclopentyl]methyl sulfamate] | < 10 nM | 98%
18 | NS(=O)(=O)OC[C@H]1C[C@@H](Nc2ccncc2C(=O)c2ccn(Cc3ccc(F)c(Cl)c3)n2)C[C@@H]1O [Compound I-97, {(1R,2S,4R)-4-[(3-{[1-(3-Chloro-4-fluorobenzyl)-1H-pyrazol-3-yl]carbonyl}pyridin-4-yl)amino]-2-hydroxycyclopentyl}methyl sulfamate] | < 10 nM | 96%

From patent US9695154B2, “Heteroaryl inhibitors of sumo activating enzyme” (MILLENNIUM PHARMACEUTICALS, INC., priority 2013, dated 2017)
